These results are taken from ChEMBL document CHEMBL1201862, “PubChem BioAssay data set” (2004).

Assay [1] can be described thus: HEp-2 cell cytotoxicity, dose response, cytotoxicity control for RSV inhibitor project, HTS (AID 2410). In kind it is functional. The conditions noted are these: human respiratory syncytial virus.
Another assay has as its target T1, Protein skinhead-1 (Caenorhabditis elegans, UniProt P34707).
T1 sequence (P34707 whole entry): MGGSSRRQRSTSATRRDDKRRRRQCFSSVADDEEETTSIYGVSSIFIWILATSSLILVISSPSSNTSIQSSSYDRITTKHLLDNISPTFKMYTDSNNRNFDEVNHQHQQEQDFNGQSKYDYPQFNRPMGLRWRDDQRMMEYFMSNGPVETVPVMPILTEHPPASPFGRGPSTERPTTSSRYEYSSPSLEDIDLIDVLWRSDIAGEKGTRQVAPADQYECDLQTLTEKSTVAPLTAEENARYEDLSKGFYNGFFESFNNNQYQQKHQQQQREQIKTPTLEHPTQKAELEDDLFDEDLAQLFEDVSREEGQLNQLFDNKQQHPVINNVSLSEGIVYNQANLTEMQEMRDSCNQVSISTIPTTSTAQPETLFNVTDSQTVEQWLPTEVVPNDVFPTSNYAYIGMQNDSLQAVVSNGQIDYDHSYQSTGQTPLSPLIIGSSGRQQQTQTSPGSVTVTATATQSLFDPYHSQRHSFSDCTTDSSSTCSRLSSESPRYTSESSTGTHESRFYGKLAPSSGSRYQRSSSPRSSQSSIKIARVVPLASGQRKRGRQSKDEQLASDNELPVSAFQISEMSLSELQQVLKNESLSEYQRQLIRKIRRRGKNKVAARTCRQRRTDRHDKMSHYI
It is filed as functional.

In assay [2] the target is T2, Replicative DNA helicase DnaB (Mycobacterium tuberculosis, UniProt P9WMR3).
T2 sequence (P9WMR3 whole entry): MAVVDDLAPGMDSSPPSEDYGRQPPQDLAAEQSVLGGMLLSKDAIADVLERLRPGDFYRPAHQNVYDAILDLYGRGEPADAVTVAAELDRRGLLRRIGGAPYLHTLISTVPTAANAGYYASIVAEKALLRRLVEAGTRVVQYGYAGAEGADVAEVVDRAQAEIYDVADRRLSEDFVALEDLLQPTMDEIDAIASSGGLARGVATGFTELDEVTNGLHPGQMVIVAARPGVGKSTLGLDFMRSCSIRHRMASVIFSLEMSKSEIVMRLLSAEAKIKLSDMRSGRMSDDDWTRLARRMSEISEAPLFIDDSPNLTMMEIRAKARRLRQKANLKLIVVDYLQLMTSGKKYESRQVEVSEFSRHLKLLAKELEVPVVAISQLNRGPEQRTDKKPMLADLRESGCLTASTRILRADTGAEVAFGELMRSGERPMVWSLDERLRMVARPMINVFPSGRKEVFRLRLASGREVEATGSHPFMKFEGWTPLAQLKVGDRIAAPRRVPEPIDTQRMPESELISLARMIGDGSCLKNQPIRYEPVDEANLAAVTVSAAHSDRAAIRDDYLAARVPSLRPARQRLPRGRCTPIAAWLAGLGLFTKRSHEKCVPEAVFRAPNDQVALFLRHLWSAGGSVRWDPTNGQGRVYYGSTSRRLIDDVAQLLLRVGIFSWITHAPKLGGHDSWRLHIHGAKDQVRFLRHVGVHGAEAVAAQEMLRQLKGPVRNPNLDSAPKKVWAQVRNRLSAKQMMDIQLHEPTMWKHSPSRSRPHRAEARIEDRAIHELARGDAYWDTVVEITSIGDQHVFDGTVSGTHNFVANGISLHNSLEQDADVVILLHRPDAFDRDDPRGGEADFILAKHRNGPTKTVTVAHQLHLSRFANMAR
Put plainly: DnaB intein splicing inhibitors, dose response, biochemical, cell-free fluorescence (AID 449749). In kind it is functional.

The target of the next assay is T3, Protein RecA (Mycobacterium tuberculosis, UniProt P9WHJ3).
T3 sequence (P9WHJ3 whole entry): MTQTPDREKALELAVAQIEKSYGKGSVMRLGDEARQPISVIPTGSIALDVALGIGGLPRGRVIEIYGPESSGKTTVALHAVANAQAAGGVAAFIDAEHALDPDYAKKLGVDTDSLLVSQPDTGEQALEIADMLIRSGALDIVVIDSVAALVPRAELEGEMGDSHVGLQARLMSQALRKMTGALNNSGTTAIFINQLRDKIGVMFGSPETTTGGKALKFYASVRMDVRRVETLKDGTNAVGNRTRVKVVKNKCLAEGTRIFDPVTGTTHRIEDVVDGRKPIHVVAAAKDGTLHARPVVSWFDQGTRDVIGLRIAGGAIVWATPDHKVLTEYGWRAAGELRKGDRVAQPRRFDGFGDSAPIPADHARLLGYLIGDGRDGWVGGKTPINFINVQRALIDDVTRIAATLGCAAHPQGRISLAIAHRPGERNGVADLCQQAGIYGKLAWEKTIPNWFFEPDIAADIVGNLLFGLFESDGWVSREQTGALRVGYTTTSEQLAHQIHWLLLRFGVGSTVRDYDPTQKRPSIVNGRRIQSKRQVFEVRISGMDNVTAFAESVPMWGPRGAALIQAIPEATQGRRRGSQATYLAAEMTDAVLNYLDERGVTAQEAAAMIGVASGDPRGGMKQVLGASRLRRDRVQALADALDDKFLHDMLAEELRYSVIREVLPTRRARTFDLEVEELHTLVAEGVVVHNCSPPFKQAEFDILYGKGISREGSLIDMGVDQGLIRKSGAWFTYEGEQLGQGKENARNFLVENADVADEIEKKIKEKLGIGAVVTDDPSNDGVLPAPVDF
Put plainly: Fluorescence Cell-Free Homogeneous Dose Retest to Identify Inhibitors of RecA-Intein Splicing Activity. [Related pubchem assays (depositor defined):AID2097, AID2223, AID489010, AID492950]. In kind it is functional.

Assay [3] has as its target Luciferin 4-monooxygenase (Photinus pyralis, UniProt P08659). Put plainly: firefly luciferase enzyme inhibitors, dose response, biochemical, luminescence (AID 1891).
Assay [4] is described as follows: Luminescence Cell-Based Dose Confirmation HTS to Identify Inhibitors of Platelet Dense Granule Release. [Related pubchem assays: 1663 (Primary HTS), 1678 (Summary of Project)]. It is filed as functional.
A further assay deals with T4, Cytochrome P450 1A2 (Homo sapiens, UniProt P05177).
T4 sequence (P05177 whole entry): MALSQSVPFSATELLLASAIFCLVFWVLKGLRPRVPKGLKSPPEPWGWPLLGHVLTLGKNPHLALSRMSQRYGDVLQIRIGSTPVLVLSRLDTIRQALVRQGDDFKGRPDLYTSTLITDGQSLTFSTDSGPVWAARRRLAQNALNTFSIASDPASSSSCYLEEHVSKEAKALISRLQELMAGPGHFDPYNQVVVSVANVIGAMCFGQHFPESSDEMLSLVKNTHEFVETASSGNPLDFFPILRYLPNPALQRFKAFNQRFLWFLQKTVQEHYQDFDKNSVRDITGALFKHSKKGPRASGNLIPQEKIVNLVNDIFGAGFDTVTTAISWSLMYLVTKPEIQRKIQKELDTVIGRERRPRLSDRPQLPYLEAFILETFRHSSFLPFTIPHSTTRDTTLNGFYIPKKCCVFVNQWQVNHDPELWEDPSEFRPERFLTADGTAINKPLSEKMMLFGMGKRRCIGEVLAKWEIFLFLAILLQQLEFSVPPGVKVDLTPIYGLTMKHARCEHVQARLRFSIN

The next assay addresses Cytochrome P450 2C19 (Homo sapiens, UniProt P33261). Put plainly: Cytochrome panel assay with activity outcomes. Panel member name: p450-cyp2c19 Compounds with AC50 equal or less than 10 uM are considered active. It is filed as functional. The conditions noted are these: read-out: AC50.
Another assay addresses Cytochrome P450 2C9 (Homo sapiens, UniProt P11712).
A short description of assay [5]: Luminescence Cell-Based Dose Retest to Confirm Inhibitors of Cancer Stem Cells. [Related pubchem assays (depositor defined):AID2717, AID2721]. It is filed as functional, Homo sapiens. The conditions noted are these: Homo sapiens.
A further assay has as its target Cytochrome P450 3A4 (Homo sapiens, UniProt P08684).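 Also: CYP3A4 tested as one member of a cytochrome P450 panel screen.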

Each structure is given as a SMILES string. Activity calls are given as the source filed them.

Luciferin 4-monooxygenase, sequence (P08659 whole entry): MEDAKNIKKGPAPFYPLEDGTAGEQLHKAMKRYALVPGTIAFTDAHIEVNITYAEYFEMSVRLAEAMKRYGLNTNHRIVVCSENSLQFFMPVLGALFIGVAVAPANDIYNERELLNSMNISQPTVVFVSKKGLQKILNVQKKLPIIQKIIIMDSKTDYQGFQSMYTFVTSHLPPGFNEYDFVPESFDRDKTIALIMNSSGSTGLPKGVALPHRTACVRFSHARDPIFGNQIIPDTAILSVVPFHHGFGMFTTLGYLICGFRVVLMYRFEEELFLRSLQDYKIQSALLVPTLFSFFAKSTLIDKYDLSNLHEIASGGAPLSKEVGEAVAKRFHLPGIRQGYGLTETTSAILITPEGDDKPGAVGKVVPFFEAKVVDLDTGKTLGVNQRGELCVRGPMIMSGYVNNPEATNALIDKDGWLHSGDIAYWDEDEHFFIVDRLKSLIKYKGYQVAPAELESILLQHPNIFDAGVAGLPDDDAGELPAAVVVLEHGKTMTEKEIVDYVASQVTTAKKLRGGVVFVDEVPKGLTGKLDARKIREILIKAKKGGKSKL
Cytochrome P450 2C19, sequence (P33261 whole entry): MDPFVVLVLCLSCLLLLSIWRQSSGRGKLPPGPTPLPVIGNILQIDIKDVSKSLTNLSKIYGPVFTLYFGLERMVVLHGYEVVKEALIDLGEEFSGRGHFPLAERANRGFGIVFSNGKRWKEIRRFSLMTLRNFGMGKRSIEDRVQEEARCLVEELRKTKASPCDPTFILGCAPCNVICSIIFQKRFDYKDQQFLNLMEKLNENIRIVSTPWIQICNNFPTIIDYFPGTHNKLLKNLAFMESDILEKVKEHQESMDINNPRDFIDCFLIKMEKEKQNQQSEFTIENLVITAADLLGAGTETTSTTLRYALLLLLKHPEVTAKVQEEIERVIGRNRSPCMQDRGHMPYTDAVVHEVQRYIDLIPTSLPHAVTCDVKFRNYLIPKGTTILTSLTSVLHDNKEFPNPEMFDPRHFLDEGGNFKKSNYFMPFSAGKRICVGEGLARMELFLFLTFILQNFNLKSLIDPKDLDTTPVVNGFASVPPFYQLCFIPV
Cytochrome P450 3A4, sequence (P08684 whole entry): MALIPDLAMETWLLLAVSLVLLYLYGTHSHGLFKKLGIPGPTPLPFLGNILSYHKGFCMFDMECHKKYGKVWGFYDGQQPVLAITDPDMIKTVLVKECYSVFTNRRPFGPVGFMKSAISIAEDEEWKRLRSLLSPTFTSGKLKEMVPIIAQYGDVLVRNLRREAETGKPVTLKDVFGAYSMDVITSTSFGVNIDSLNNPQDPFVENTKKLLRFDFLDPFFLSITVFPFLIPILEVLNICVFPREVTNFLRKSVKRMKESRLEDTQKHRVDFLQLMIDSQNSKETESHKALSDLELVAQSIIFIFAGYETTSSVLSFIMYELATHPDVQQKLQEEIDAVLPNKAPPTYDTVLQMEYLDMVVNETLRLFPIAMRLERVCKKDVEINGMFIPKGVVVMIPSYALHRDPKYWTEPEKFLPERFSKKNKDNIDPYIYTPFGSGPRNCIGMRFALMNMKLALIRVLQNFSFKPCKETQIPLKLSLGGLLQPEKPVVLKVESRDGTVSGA
Cytochrome P450 2C9, sequence (P11712 whole entry): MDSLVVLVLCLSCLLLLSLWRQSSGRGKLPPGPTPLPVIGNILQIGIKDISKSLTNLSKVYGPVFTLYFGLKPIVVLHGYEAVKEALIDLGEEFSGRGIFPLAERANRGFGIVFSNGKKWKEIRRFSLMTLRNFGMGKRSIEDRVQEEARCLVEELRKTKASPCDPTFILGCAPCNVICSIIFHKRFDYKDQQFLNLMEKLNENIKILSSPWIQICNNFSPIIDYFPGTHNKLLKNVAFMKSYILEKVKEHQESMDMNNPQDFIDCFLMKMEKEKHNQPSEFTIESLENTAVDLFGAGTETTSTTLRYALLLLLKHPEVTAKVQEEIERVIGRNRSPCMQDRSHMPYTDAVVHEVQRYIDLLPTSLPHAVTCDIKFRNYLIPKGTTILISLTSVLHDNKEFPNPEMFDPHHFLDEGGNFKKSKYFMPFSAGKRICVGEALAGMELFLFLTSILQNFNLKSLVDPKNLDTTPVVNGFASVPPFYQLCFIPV

For the molecule `c1ccc2sc(-c3ccncc3)nc2c1`, the CC50 in assay [1] was 25.5 µM (active). Besides, the IC50 at Protein skinhead-1 was 54.5 µM (inactive).

Consider `COCc1n[nH]c2c1C(c1ccccc1F)C(C#N)=C(N)O2` (configuration not stated), for which the AC50 in assay [2] was 36.4 µM (active). In addition, on Protein RecA, the EC50 is 6.49 µM (active).

In the case of `Cc1nnc(SCCn2c(N3CC(C)CC(C)C3)nc3c2c(=O)n(C)c(=O)n3C)s1` (configuration not stated), the IC50 at Protein skinhead-1 is > 100 µM (inactive).

In the case of `COc1ccc(NC(=O)c2cnn(-c3ccccc3)c2C)cc1`, the EC50 in assay [3] is 16.6 µM (active); in [4], 6.03 µM (active).

Take `O[C@H](CN1CCN(c2cccc(Cl)c2)CC1)C(c1ccccc1)c1ccccc1`: on Cytochrome P450 1A2, the AC50 was 31.6 µM (inconclusive).

As for `OC(CNC1CCCC1)COc1ccc(-c2ccccc2)cc1` (configuration not stated), the IC50 on Protein skinhead-1 was 45.6 µM (active).

Take `O=C(O)/C=C\C(=O)Nc1ccc(Oc2ccc(Br)cc2)cc1`: the AC50 in assay [2] was 14.6 µM (active). Besides, at Protein RecA, the EC50 was 11 µM (active).

Consider `COc1ccccc1NC(=O)c1cc2n(n1)C(C(F)(F)F)CC(c1ccc3c(c1)OCO3)N2` (configuration not stated), for which the EC50 in assay [3] and in assay [4] was > 112 µM (not active) throughout.

For the molecule `COc1cc(N)c(Cl)cc1C(=O)N[C@H]1CCN(CCCOc2ccc(F)cc2)C[C@@H]1OC`, the values for the AC50 at Cytochrome P450 2C19, on Cytochrome P450 1A2 and at Cytochrome P450 2C9 were 0.794 µM (active), 25.1 µM (inconclusive) and 1 µM (active), respectively.

In the case of `COc1cc2c(cc1OC)-c1cc(Nc3cccc(C)c3)nc(=O)n1CC2`, the half-maximal effective concentration (EC50) in assay [3] is > 112 µM (not active); in [4] it was 4.03 µM (active).

With `COC(=O)c1ccc(NC(=O)C(=O)c2cccn2C)cc1`, the EC50 in assay [3] was 1.74 µM (active); in [4] it was 2.39 µM (active).

On to `O=C(Nc1ccc2c(c1)OCO2)Nc1ccccc1F`, for which the figures for the EC50 in assay [3] and in assay [4] were 1.77 µM (active) and 3.42 µM (active), respectively.

For the molecule `CCn1c(SCC(=O)N(C)c2c(N)n(Cc3ccccc3)c(=O)[nH]c2=O)nc2ccccc21`, the EC50 in assay [3] and in assay [4] was > 112 µM (not active) throughout.

Consider `CN(C)c1ccc([C@@H]2N([C@H](C#N)c3ccc(N(C)C)cc3)CCCN2[C@@H](C#N)c2ccc(N(C)C)cc2)cc1`, for which, at Cytochrome P450 1A2, the AC50 was 5.01 µM (inconclusive).

For the molecule `Clc1ccsc1-c1ccc2ccccc2n1`, the IC50 on Protein skinhead-1 is 16 µM (active).

Turning to `CSc1nc(-c2ccco2)nn1C(=O)c1cccs1`, the AC50 in [2] was 28.3 µM (active). Moreover, on Protein RecA, the EC50 is 24.7 µM (active).

For `COC(=O)c1ccc(S(=O)(=O)N2CCCCCC2)cc1`, on Protein skinhead-1, the IC50 is > 100 µM (inactive).

Regarding `C=CCn1c(S)nnc1-c1cc(Cl)ccc1OC`, the EC50 in assay [4] is recorded as > 112 µM (not active).

As to `COc1ccc(-c2cc(-c3ccccc3)[nH]n2)c(O)c1`, the IC50 on Protein skinhead-1 was > 100 µM (inactive).

Turning to `O=C1NC(c2ccc(-c3ccccc3[N+](=O)[O-])o2)C(C(=O)c2ccc(Cl)cc2)C(O)(C(F)(F)F)N1` (configuration not stated), the AC50 in [5] is 9.56 µM (active); in assay [2] it was 4.27 µM (active).

`C[C@@H](CN)CC(=O)O`: the AC50 at Cytochrome P450 1A2 was 39.8 µM (inconclusive).

Take `O=C(Nc1ccc(-c2cn3ccsc3n2)cc1)C1COc2ccccc2O1` (configuration not stated): the IC50 at Protein skinhead-1 was > 100 µM (inactive).

`Cc1n[nH]c2c1C(c1c(C)nn(C)c1C)C(C#N)=C(N)O2` (configuration not stated): the AC50 in [2] is 4.2 µM (active). Further, the EC50 at Protein RecA was 4.86 µM (active).

Consider `COC(=O)[C@@H]1[C@@H]2C[C@H]3c4[nH]c5cc(OC)ccc5c4CCN3C[C@@H]2C[C@H](OC(=O)/C=C\c2cc(OC)c(OC)c(OC)c2)[C@H]1OC`, for which, at Cytochrome P450 1A2, the AC50 was 3.16 µM (inconclusive).

In the case of `Cc1ccc(NC(=O)COc2ccc(Br)cc2CO)cc1S(=O)(=O)N1CCOCC1`, the IC50 at Protein skinhead-1 was > 100 µM (inactive).

As for `CC(C)(C)NC(=O)COC(=O)c1cncc(Br)c1`, the results for the AC50 on Cytochrome P450 1A2 and at Cytochrome P450 3A4 were 20 µM (inconclusive) and 15.8 µM (inconclusive), respectively.

In the case of `CC(C)C(=O)NCCc1nc(-c2ccccc2Cl)no1`, the IC50 on Protein skinhead-1 was > 100 µM (inactive).

As for `CCOC(=O)CCCN`, on Cytochrome P450 1A2, the AC50 was 6.31 µM (inconclusive).

In the case of `N[C@@H](Cc1cccnn1)C(=O)O`, the AC50 on Cytochrome P450 1A2 was 3.16 µM (inconclusive).

Take `CC(C)NC(=O)C1(C)CSCC(=O)N1CCCN1CCOCC1` (configuration not stated): the IC50 at Protein skinhead-1 is > 100 µM (inactive).

`COc1cc(C(=O)Nc2nccs2)cc(OC)c1OC`: the IC50 on Protein skinhead-1 is > 100 µM (inactive).

For `Cc1ccc(/C=N/NC(=O)Cn2nccc2C)o1`, the results for the AC50 on Cytochrome P450 2C19 and on Cytochrome P450 1A2 were 11.2 µM (inconclusive) and 15.8 µM (inconclusive), respectively.

Take `O=c1cc(C23CC4CC(CC(C4)C2)C3)[nH][nH]1`: the AC50 in assay [2] is 2.85 µM (active). Further, on Protein RecA, the EC50 is 2.52 µM (active).

Consider `COc1ccc(C2C(C(C)=O)=C(C)N=c3s/c(=C\c4cc(C)n(C)c4C)c(=O)n32)c(OC)c1` (configuration not stated), for which, at Protein skinhead-1, the IC50 was > 100 µM (inactive).

Regarding `CCCCCCCCCCCCCCCC(=O)C(F)(F)F`, the AC50 at Cytochrome P450 1A2 was 31.6 µM (inconclusive).
